Measurements reported in patent US20220047563A1, “COMBINATION THERAPY FOR THE TREATMENT OF ESTROGEN-RECEPTOR POSITIVE BREAST CANCER” (ZENITH EPIGENETICS LTD., priority 2018, published 2022).

Columns and labels:
Type in all cases: cell-based
[1] = system: WT-MCF7 cells; assay: Cell viability (CellTiter Fluor), combination of Compound I with abemaciclib, WT-MCF7; conditions: 7 days, average of CI at ED50, 75, 90 (Chou-Talalay)
Procedure: (§1) MCF7, Palbo-R-MCF7, ZR-75-1, Abema-R MCF7, and Palbo-R ZR-75-1 cells were plated at a density of 7,500 cells per well in 96 well flat bottom plates in 1640-RPMI media containing 10% FBS and penicillin/streptomycin and incubated for 24 hours at 37° C., 5% CO2. Media was replaced with 1640-RPM I containing 10% FBS with constant ratios of either Compound I or abemaciclib as single agents, or a combination of both drugs at four different concentrations (2× IC50, 1× IC50, 0.5× IC50, 0.25× IC50), and incubated at 37° C., 5% CO2 for 7 days. The cells were retreated as described above on the 3rd or 4th day. Triplicate wells were used for each concentration and wells containing only media with 0.1% DMSO were used as a control. […] Fluorescence at 380-400 nm Excitation/505 nm Emission was read in a fluorometer and the percentage of cell titer relative to DMSO-treated cells was calculated after correcting for background by subtracting the blank well's signal. IC50 values for single agents were calculated using the GraphPad Prism software. Quantification of synergy was done by calculating combination indices (CI) using the CalcuSyn software (Biosoft) based on the Chou-Talalay algorithm (Chou and Talalay, 1984), and averaging the CI values for the effective doses (ED) 50, 75, and 90.

[2] = system: Palbo-R-MCF7 cells; assay: Cell viability (CellTiter Fluor), combination of Compound I with abemaciclib, Palbo-R-MCF7; conditions: 7 days, average of CI at ED50, 75, 90 (Chou-Talalay)
Procedure: as §1

[3] = system: ZR-75-1 cells; assay: Cell viability (CellTiter Fluor), combination of Compound I with abemaciclib, ZR-75-1; conditions: 7 days, average of CI at ED50, 75, 90 (Chou-Talalay)
Procedure: as §1

[4] = system: Palbo-R ZR-75-1 cells; assay: Cell viability (CellTiter Fluor), combination of Compound I with abemaciclib, Palbo-R ZR-75-1; conditions: 7 days, average of CI at ED50, 75, 90 (Chou-Talalay)
Procedure: as §1

[5] = system: Abema-R MCF7 cells; assay: Cell viability (CellTiter Fluor), combination of Compound I with abemaciclib, Abema-R MCF7; conditions: 7 days, average of CI at ED50, 75, 90 (Chou-Talalay)
Procedure: as §1

[6] = system: WT-MCF7 cells; assay: Cell viability (CellTiter Fluor), combination of Compound I with fulvestrant, MCF7; conditions: 7 days
Procedure: MCF7 cells were plated at a density of 7,500 cells per well in 96 well flat bottom plates in phenol-red free 1640-RPMI media containing 10% charcoal-stripped FBS and penicillin/streptomycin and incubated for 24 hours at 37° C., 5% CO2. Media was replaced with phenol-red free 1640-RPM I media containing 10% charcoal-stripped FBS and penicillin/streptomycin treated with constant ratios of either Compound I or fulvestrant as single agents, or a combination of both drugs at four different concentrations (2× IC50, 1× IC50, 0.5× IC50, 0.25× IC50), and incubated at 37° C., 5% CO2 for 7 days. The cells were retreated as described above on the 3rd or 4th day. Triplicate wells were used for each concentration and wells containing only media with 0.1% DMSO were used as a control. […] Fluorescence at 380-400 nm Excitation/505 nm Emission was read in a fluorometer and the percentage of cell titer relative to DMSO-treated cells was calculated after correcting for background by subtracting the blank well's signal. IC50 values for single agents were calculated using the GraphPad Prism software. Quantification of synergy was done by calculating combination indices (CI) using the CalcuSyn software (Biosoft) based on the Chou-Talalay algorithm (Chou and Talalay, 1984), and averaging the CI values for the effective doses (ED) 50, 75, and 90.

[7] = system: MCF7, Palbo-R-MCF7, ZR-75-1, Abema-R MCF7, and Palbo-R ZR-75-1 cells; assay: Cell viability (CellTiter Fluor), combination of Compound I with abemaciclib, ER+ breast cancer cell line panel; conditions: 7 days
Procedure: as §1

SMILES: CNc1nc2ncc(-c3c(C)noc3C)cc2n1Cc1ccccc1 [Compound I, 1-benzyl-6-(3,5-dimethylisoxazol-4-yl)-N-methyl-1H-imidazo[4,5-b]pyridine-2-amine]
- CI (combination index) [1]: 0.08
- CI (combination index) [2]: 0.20
- CI (combination index) [3]: 0.14
- CI (combination index) [4]: 0.35
- CI (combination index) [5]: 0.30
- inhibition of cell viability, combination versus single agents ([6]; addition of Compound I to fulvestrant): improved inhibition of cell viability compared to either single agent
- CI (combination index) ([6]; combination with fulvestrant, charcoal-stripped FBS, phenol-red free media, average of CI at ED50, 75, 90 (Chou-Talalay)): 0.51
- inhibition of cell viability, combination versus single agents ([7]; addition of Compound I to abemaciclib, five cell lines): improved inhibition of cell viability compared to either single agent
- average CI value ([7]; combination with abemaciclib, depending upon the cell line (five cell lines)): 0.08-0.35
